Results: paper PMC8611036, “An integrated method for optimized identification of effective natural inhibitors against SARS-CoV-2 3CLpro” (Scientific Reports, 2021)
Non-standard residues stand in square brackets, D forms with d. Residues, ends and D or L forms follow the SMILES beside them. Cha = N[C@@H](CC1CCCCC1)C(=O)O

Each compound was assayed on SARS-CoV 3CLpro. Conditions: activity class by pIC50 threshold 6.
Assay type: biochemical

Row | SMILES | Inact.(<6)/Act.(>=6)
1 | O=C(Oc1cncc(Cl)c1)c1ccccc1[N+](=O)[O-] [CMP279] | Act. (Act.(>=6))
2 | CC1CCCCN1S(=O)(=O)c1ccc2c(c1)C(=O)C(=O)N2 (centres unmarked) [CMP240] | Inact. (Inact.(<6))
3 | CN1C(=O)C(=O)c2cc(S(=O)(=O)N3CCN(c4ccccn4)CC3)ccc21 [CMP245] | Inact. (Inact.(<6))
4 | CC(C)(C)NC(=O)C(c1ccnnc1)N(C(=O)c1ccco1)c1ccc(C(C)(C)C)cc1 (centres unmarked) [CMP203] | Inact. (Inact.(<6))
5 | CC(C)C[C@H](NC(=O)[C@@H](NC(=O)[C@H](C)NC(=O)[C@H](CO)NC(=O)[C@@H](NC(=O)OCc1ccccc1)[C@@H](C)O)C(C)C)C(=O)N[C@H](C#N)CCC(N)=O [CMP231] (HELM PEPTIDE1{[O=C(OCc1ccccc1)[*:2]].T.S.A.V.L.[N#C[C@H](CCC(N)=O)N[*:1]]}$$$$V2.0) | Inact. (Inact.(<6))
6 | O=C[C@H](Cc1c[nH]cn1)NC[C@@H]1C[C@H]2CCCC[C@@H]2CN1C(=O)c1ccc(F)cc1 [CMP258] | Inact. (Inact.(<6))
7 | CC1CCN(S(=O)(=O)c2ccc3c(c2)C(=O)C(=O)N3Cc2ccccc2)CC1 [CMP248] | Inact. (Inact.(<6))
8 | O=C(Oc1cncc(Cl)c1)c1ccc(-c2cccc([N+](=O)[O-])c2)o1 [CMP278] | Act. (Act.(>=6))
9 | COC(=O)c1nc(SSc2ccc(Cl)cc2)[nH]c1C [CMP268] | Inact. (Inact.(<6))
10 | COCCC(=O)Nc1ccc(N(C(=O)Cn2nnc3ccccc32)C(C)c2ccsc2)cc1 (centres unmarked) [CMP252] | Inact. (Inact.(<6))
11 | COC(=O)c1ccccc1SSc1nc(C(=O)OC)c(C)[nH]1 [CMP265] | Inact. (Inact.(<6))
12 | O=C(Oc1cncc(Cl)c1)c1ccc(Cl)cc1 [CMP165] | Act. (Act.(>=6))
13 | COc1ccc(-c2cc(=O)c3c(O)cc(O)cc3o2)cc1-c1c(O)cc(O)c2c(=O)cc(-c3ccc(O)cc3)oc12 [CMP157] | Inact. (Inact.(<6))
14 | CN1CCN(S(=O)(=O)c2ccc3c(c2)C(=O)C(=O)N3C)CC1 [CMP241] | Inact. (Inact.(<6))
15 | CC1CCN(S(=O)(=O)c2ccc3c(c2)C(=O)C(=O)N3C)CC1 [CMP247] | Inact. (Inact.(<6))
16 | O=C(Oc1cncc(Cl)c1)c1ccc(-c2ccc(Cl)cc2)o1 [CMP277] | Act. (Act.(>=6))
17 | O=C(Oc1cncc(Cl)c1)c1cccnc1 [CMP172] | Act. (Act.(>=6))
18 | CC(C)C[C@H](NC(=O)[C@@H](NC(=O)[C@H](C)NC(=O)OC(C)(C)C)C(C)C)C(=O)N[C@H](C#N)CCC(N)=O [CMP229] | Inact. (Inact.(<6))
19 | Cn1cnc(C(=O)N(c2ccc(C(C)(C)C)cc2)C(C(=O)NC(C)(C)C)c2cccnc2)c1 (centres unmarked) [CMP206] | Inact. (Inact.(<6))
20 | Cc1ccc(C(=O)N/C(=C\c2ccc(-c3cccc([N+](=O)[O-])c3)o2)C(=O)NCCCN(C)C)cc1 [CMP283] | Inact. (Inact.(<6))
21 | CC1CC(C)CN(S(=O)(=O)c2ccc3c(c2)C(=O)C(=O)N3Cc2ccccc2)C1 (centres unmarked) [CMP251] | Inact. (Inact.(<6))
22 | O=C1Nc2ccc(S(=O)(=O)N3CCN(CCc4ccccc4)CC3)cc2C1=O [CMP237] | Inact. (Inact.(<6))
23 | Cc1ccc(C(=O)N/C(=C\c2ccc(-c3ccccc3[N+](=O)[O-])o2)C(=O)NCCCN(C)C)cc1 [CMP284] | Inact. (Inact.(<6))
24 | CC(C)(C)NC(=O)C(c1ccsc1)N(C(=O)Cn1nnc2ccccc21)c1ccc(NC(=O)C2CC2)cc1 (centres unmarked) [CMP191] | Inact. (Inact.(<6))

Row | SMILES | Inact.(<6)/Act.(>=6)
25 | O=C(Oc1cncc(Cl)c1)c1ccc(-c2ccc([N+](=O)[O-])cc2)o1 [CMP282] | Act. (Act.(>=6))
26 | C=C1CC[C@H]2[C@](C)(CO)CCC[C@]2(C)[C@H]1CC/C(C)=C\CO [CMP209] | Inact. (Inact.(<6))
27 | O=C1C(=O)N(Cc2ccc3ccccc3c2)c2ccc(S(=O)(=O)N3CCOCC3)cc21 [CMP246] | Inact. (Inact.(<6))
28 | O=C(Oc1cncc(Br)c1)c1cccs1 [CMP232] | Act. (Act.(>=6))
29 | Cc1csc(SSc2ccccc2[N+](=O)[O-])n1 [CMP267] | Inact. (Inact.(<6))
30 | O=C(Sc1nnc(C(F)(F)F)[nH]1)c1ccc(C#Cc2ccccc2)o1 [CMP143] | Inact. (Inact.(<6))
31 | Cc1cc(C(=O)N[C@@H](C)C(=O)N[C@H](C(=O)N[C@@H](CC(C)C)C(=O)N[C@H](C#N)CCC(N)=O)C(C)C)no1 [CMP228] | Inact. (Inact.(<6))
32 | CC1=CC[C@]2(C)CC[C@]3(C)C4=CC=C5C(=CC(=O)C(O)=C5C)[C@]4(C)CC[C@@]3(C)[C@@H]2C1 [CMP200] | Inact. (Inact.(<6))
33 | O=C1NN(c2ccc(Cl)c(Cl)c2)C(=O)/C1=C\c1ccc(-c2ccc(Br)cc2C(=O)O)o1 [CMP104] | Inact. (Inact.(<6))
34 | Cc1nnc(SSc2ccccc2[N+](=O)[O-])o1 [CMP273] | Inact. (Inact.(<6))
35 | CC1CCN(S(=O)(=O)c2ccc3c(c2)C(=O)C(=O)N3Cc2ccc3ccccc3c2)CC1 [CMP249] | Inact. (Inact.(<6))
36 | CC(=O)Oc1cc2c(cc1C(C)C)CC[C@H]1[C@](C)(CO)CCC[C@]21C [CMP207] | Inact. (Inact.(<6))
37 | O=C(Nc1ccc(N(Cc2ccsc2)C(=O)Cn2nnc3ccccc32)cc1)C1CC1 [CMP195] | Inact. (Inact.(<6))
38 | CC1CC(C)CN(S(=O)(=O)c2ccc3c(c2)C(=O)C(=O)N3)C1 (centres unmarked) [CMP255] | Inact. (Inact.(<6))
39 | CCN(CC)c1ccc(C(=O)On2nnc3ccccc32)cc1 [CMP164] | Inact. (Inact.(<6))
40 | CCC(C)(C)NC(=O)[C@@H](c1ccn(C)c1)N(C(=O)Cn1nnc2ccccc21)c1ccc(NC(C)=O)cc1 [CMP254] | Inact. (Inact.(<6))
41 | COc1ncc(-c2ccc(N(Cc3ccsc3)C(=O)Cn3nnc4ccccc43)cc2)cn1 [CMP222] | Inact. (Inact.(<6))
42 | CC(C)COC(=O)Nc1ccc(N(Cc2ccsc2)C(=O)Cn2nnc3ccccc32)cc1 [CMP199] | Inact. (Inact.(<6))
43 | CN1CCN(S(=O)(=O)c2ccc3c(c2)C(=O)C(=O)N3Cc2ccc3ccccc3c2)CC1 [CMP243] | Inact. (Inact.(<6))
44 | COc1cccc(C(=O)Oc2cncc(Cl)c2)c1 [CMP171] | Act. (Act.(>=6))
45 | C=C(Cc1cccc(C)c1)C1=CC=C(c2ccc(C)cc2)C1 [CMP233] | Inact. (Inact.(<6))
46 | O=C1Nc2ccc(S(=O)(=O)N3CCN(Cc4cccc(Cl)c4)CC3)cc2C1=O [CMP235] | Inact. (Inact.(<6))
47 | CC(=O)Nc1cnc(SSc2ccc(Br)cc2)s1 [CMP23, reference compound] | Inact. (Inact.(<6))
48 | CN1CCN(S(=O)(=O)c2ccc3c(c2)C(=O)C(=O)N3)CC1 [CMP227] | Inact. (Inact.(<6))

Row | SMILES | Inact.(<6)/Act.(>=6)
49 | CC(=O)N[C@@H](C)C(=O)N[C@H](C(=O)N[C@@H](CC1CCCCC1)C(=O)N[C@H](C=O)Cc1c[nH]cn1)C(C)C [CMP219] (Ac-AV[Cha]H-aldehyde) | Act. (Act.(>=6))
50 | O=C(Cn1nnc2ccccc21)N(Cc1ccsc1)c1ccc(-c2ccncc2)cc1 [CMP226] | Inact. (Inact.(<6))
51 | CC(C)c1cc2c(cc1O)[C@@]1(C)CCC[C@@](C)(C=O)[C@@H]1CC2 [CMP208] | Inact. (Inact.(<6))
52 | Cc1coc2c1C(=O)C(=O)c1c-2ccc2c(C)cccc12 [CMP127] | Inact. (Inact.(<6))
53 | O=C[C@H](Cc1c[nH]cn1)NC[C@@H]1C[C@H]2CCCC[C@@H]2CN1C(=O)c1ccccc1 [CMP262] | Inact. (Inact.(<6))
54 | COc1ccc2c(c1)CCC1C2=NN(C(C)=O)C1c1cccc(I)c1 (centres unmarked) [CMP116] | Inact. (Inact.(<6))
55 | O=[N+]([O-])c1ccccc1SSc1ncccn1 [CMP270] | Act. (Act.(>=6))
56 | O=C(Oc1cncc(Cl)c1)c1ccc(-c2ccc(Cl)cc2[N+](=O)[O-])o1 [CMP280] | Act. (Act.(>=6))
57 | CC(C)C(=O)Nc1ccc(N(Cc2ccsc2)C(=O)Cn2nnc3ccccc32)cc1 [CMP198] | Inact. (Inact.(<6))
58 | CC(C)(C)NC(=O)C(c1ccncc1)N(C(=O)c1ccco1)c1ccc(C(C)(C)C)cc1 (centres unmarked) [CMP205] | Inact. (Inact.(<6))
59 | COC(=O)/C=C/[C@H](C[C@@H]1CCNC1=O)NC(=O)[C@H](CC(C)C)NC(=O)[C@@H](NC(=O)OCc1ccccc1)C(C)C [CMP253] | Inact. (Inact.(<6))
60 | COC(=O)c1nc(SSc2ccccc2[N+](=O)[O-])[nH]c1C [CMP269] | Inact. (Inact.(<6))
61 | O=C(Cn1nnc2ccccc21)N(Cc1ccsc1)c1ccc(NCc2ccccc2)cc1 [CMP221] | Inact. (Inact.(<6))
62 | CC(=O)N[C@@H](CO)C(=O)N[C@@H](C)C(=O)N[C@H](C(=O)N[C@@H](CC(C)C)C(=O)N[C@H](C=O)Cc1ccccc1)C(C)C [CMP215] (Ac-SAVLF-aldehyde) | Inact. (Inact.(<6))
63 | O=C[C@H](Cc1cnc[nH]1)NC[C@@H]1C[C@H]2CCCC[C@@H]2CN1C(=O)c1ccc(Br)cc1 [CMP256] | Inact. (Inact.(<6))
64 | CC(C)C[C@H](NC(=O)[C@@H](NC(=O)[C@H](C)NC(=O)OCc1ccccc1)C(C)C)C(=O)N[C@H](C#N)CCC(N)=O [CMP230] | Inact. (Inact.(<6))
65 | O=C(Oc1cncc(Cl)c1)c1cccc([N+](=O)[O-])c1 [CMP275] | Act. (Act.(>=6))
66 | CC(C)(C)NC(=O)C(c1cccnc1)N(C(=O)c1cnco1)c1ccc(C(C)(C)C)cc1 (centres unmarked) [CMP188] | Inact. (Inact.(<6))
67 | O=C(Oc1cncc(Br)c1)c1ccco1 [CMP276] | Act. (Act.(>=6))
68 | O=C(Cn1nnc2ccccc21)N(Cc1ccsc1)c1ccc(-c2cccnc2)cc1 [CMP224] | Act. (Act.(>=6))
69 | O=C[C@H](Cc1c[nH]cn1)NC[C@H]1C[C@@H]2CCCC[C@H]2CN1C(=O)c1ccc(Br)cc1 [CMP263] | Inact. (Inact.(<6))
70 | O=C[C@H](Cc1cnc[nH]1)NC[C@@H]1C[C@H]2CCCC[C@@H]2CN1C(=O)c1ccc(-c2ccccc2)cc1 [CMP259] | Inact. (Inact.(<6))
71 | CN1C(=O)C(=O)c2cc(S(=O)(=O)N3CCN(CCc4ccccc4)CC3)ccc21 [CMP244] | Inact. (Inact.(<6))
